Key:
healthy conscious rats = test: Cystometric parameters in healthy conscious rats; type: in vivo, rat; conditions: for inhibition of bladder contractions (micturition pressure): intravenous administration, recorded 90 minutes after injection; for frequency of bladder contractions / pressure of bladder contractions: oral administration via stomach cannula, recorded 120 minutes after administration
Protocol: Male rats weighing 200 to 250 grams were used. The rats were housed with free access to food and maintained on forced 12 hours alternating light-dark cycle at 22-24° C. for at least one week, except during performance of the experiment.
The rats were anesthetized with pentobarbital, 65 mg/kg i.p. and placed in a supine position. An approximately 10 mm long midline incision was made in the shaved and cleaned abdominal wall. The urinary bladder was freed from adhering tissues, emptied and then cannulated, via an incision at the dome with a polyethylene cannula (PE50), which was permanently sutured in place. The cannula was exteriorized through a subcutaneous tunnel in the retroscapular area, where it was connected with a plastic adapter to avoid the risk of removal by the rats. For intravenous (i.v.) injection of test compounds, a polyethylene tubing (PE50) was inserted into the jugular vein and exteriorized in the retroscapular area. Since cystometrographic parameters have been reported to be influenced by the time elapsed after catheter implantation, the rats were treated with 1 mg/kg Penicilline G, intramuscularly, to prevent infection and allowed to rest 3 days after implantation and before testing commenced.
For oral administration of test compounds, a polyethylene tube (PE50) was inserted into the stomach and was permanently sutured in place. The cannula was exteriorized through a subcutaneous tunnel in the retroscapular area, where it was connected with a plastic adapter to avoid the risk of removal by the rats.
On the day of the experiments, the rats were placed in Bollman's cages, the free tip of the bladder catheter was connected through a T-shaped tube to a pressure transducer (Grass PT300 or Gould P23) to record bladder pressure and to a peristaltic pump for continuous infusion, at a constant rate of […] of saline solution into the urinary bladder. The intraluminal pressure signal during infusion was continuously recorded. Two urodynamic parameters were evaluated: micturition pressure and interval between micturition that equates to volume capacity before detrusor contraction occurs (decrease in frequency of contractions). Micturition pressure is defined as the maximal intravesical pressure induced by the contraction of detrusor during micturition. Data was calculated as the mean of testing results for several animals at each dosage. The drug effects were expressed as a percent relative to activity of the control data, which was set at 100%.
Infusion was commenced with saline solution to determine activity in rats without test compounds to be used as the control baseline. Saline solution infusion was interrupted and the test compounds were administered. At time points 90 minutes after intravenous administration and 120 minutes after oral drug administration, cystometrograms were recorded in each animal and the mean values of the recorded cystometrographic parameters were calculated.

[1] = system: rats experiencing partial urethral restriction; test: Cystometric parameters in rats experiencing partial urethral restriction; type: in vivo, rat; conditions: oral administration of 10 mg/kg
Text: Male rats weighing 200 to 250 grams were used. The method to produce bladder outlet obstructions thereby producing partial urethral restriction is essentially that reported by Malmgren et al, J. Urol. 137:1291-1294, the disclosure of which is hereby incorporated herein by reference. Following anesthetic induction, the ventral abdominal wall and perineum were shaved and cleaned with betadine. A lower midline abdominal incision was made, and the bladder and proximal urethra were identified. A plastic rod with a ˜1 mm outer diameter was placed parallel to the urethra, and a silk ligature was tied around the urethra and the plastic rod. […]
On the day of testing, the bladder catheter was connected through a T-shaped tube to a pressure transducer (Grass PT300 or Gould P23) to record bladder pressure isovolumetrically and to a peristaltic pump for continuous infusion, at a constant rate of 0.1 ml/min, of saline solution into the urinary bladder. The pressure signal during infusion was continuously recorded.
Two urodynamic parameters were evaluated in the test rats: micturition pressure and interval between voiding that equates to volume capacity before detrusor contraction occurs (decrease in frequency of contractions). Changes in bladder activity were recorded and expressed as pressure or volume over time.

Structure (SMILES)	inhibition of bladder contractions (micturition pressure) (healthy conscious rats)	frequency of bladder contractions (healthy conscious rats)	pressure of bladder contractions (healthy conscious rats)	frequency and intensity of pressure contractions ([1]; three test rats)	volume capacity (bladder capacity before voiding) ([1]; trace 1d)
Cc1ccccc1[C@H](c1cccc(O)c1)N1C[C@@H](C)NC[C@@H]1C [Compound 10, 3-((S)-((2S,5R)-2,5-Dimethyl-1-piperazinyl)(2-methylphenyl)methyl)phenol]	effected an inhibition of bladder contractions				
C=CCN1C[C@H](C)N(C(c2ccccc2)c2cccc(C(=O)N(C)c3cccc(F)c3)c2)C[C@H]1C (stereo partly drawn) [Compound 4, 3-((alpha-S)-alpha-((2S,5R)-4-Allyl-2,5-dimethyl-1-piperazinyl)benzyl)-N-(3-fluorophenyl)-N-methylbenzamide]	effected an inhibition of bladder contractions				
C[C@@H]1CN(Cc2ccc(C(=O)O)cc2)[C@@H](C)CN1[C@H](c1ccc(S(=O)(=O)N(C)C)cc1)c1cccc(O)c1 [Compound 11, 4-{4-[(R)-(4-dimethylsulfamoyl-phenyl)-(3-hydroxyphenyl)methyl]-(2S,5R)-dimethylpiperazin-1-ylmethyl}benzoic acid]		a decrease in the frequency of bladder contractions	a decrease in the pressure of these contractions		
CCN(CC)C(=O)c1ccc(C(c2ccccc2)N2C[C@@H](C)N(Cc3cccc(F)c3)C[C@@H]2C)cc1 (stereo partly drawn) [Compound 1, 4-((alpha-S)-alpha-((2S,5R)-2,5-Dimethyl-4-(3-fluorobenzyl)-1-piperazinyl)benzyl)-N,N-diethylbenzamide]	effected an inhibition of bladder contractions	a decrease in the frequency of bladder contractions	a decrease in the pressure of these contractions	marked improvement in both frequency and intensity of pressure contractions (reduced)	volume capacity increased
CCN(CC)C(=O)c1ccc(C(c2ccccc2)N2C[C@@H](C)N(Cc3ccc(F)cc3)C[C@@H]2C)cc1 (stereo partly drawn) [Compound 2, 4-((alpha-S)-alpha-((2S,5R)-2,5-Dimethyl-4-(4-fluorobenzyl)-1-piperazinyl)benzyl)-N,N-diethylbenzamide]	effected an inhibition of bladder contractions				
C=CCN1C[C@H](C)N(C(c2ccc(C(=O)N(CC)CC)cc2)c2cccc(OCC(=O)O)c2)C[C@H]1C (stereo partly drawn) [Compound 3, 3-((alpha-R)-alpha-((2S,5R)-4-allyl-2,5-dimethyl-1-piperazinyl)-4-(diethylaminocarbonyl)benzyl)phenoxyacetic acid]	effected an inhibition of bladder contractions				
